Where two headings read alike, the source gives them in different places. Values belong to the molecule of their own block, whether it stands above or below them.
Legend:
bovine insulin [1] = target: T1, bovine insulin (Bos taurus, UniProt P01317); assay: D-ribose-induced non-enzymatic insulin glycation assay; assay type: biochemical; conditions: for inhibitory activity on D-ribose-induced insulin glycation: at 100 µM
T1 construct: Phe1 and Asn3 in chain B and Ser12, Gln15, Glu17, and Asn18 in chain A of the insulin; purchased Sigma-Aldrich; host or cells: bovine pancreas
Method: (§1) Glycated bovine insulin was observed by fluorescence spectroscopy because AGEs are marked by a typical fluorescence emission at 410 nm (excitation at 320 nm). To verify our experimental condition, we used vanillin as a negative control for D-ribose-induced protein glycation and rutin as a positive control for d-glucose-induced protein glycation.
(§2) The insulin from bovine pancreas was dissolved in third grade distilled water to a concentration of 6 mg/mL and acidified to pH 2.4 using phosphoric acid to produce monomeric insulin. Then the insulin solution was neutralized to pH 7.0 using 10 M NaOH. Non-enzymatic glycation of insulin was initiated by mixing the insulin solution, 0.5 M D-ribose (or 1.5 M D-glucose) in 50 mM NaH2PO4 buffer (pH 7.0), and 10% dimethyl sulfoxide (DMSO) or the test phlorotannins in a 1:8:1 ratio and incubating the mixture at 37 °C for 6 days (2 weeks for D-glucose induced insulin glycation). Vanillin was used as a negative control for D-ribose induced insulin glycation, whereas rutin was used as a positive control for D-glucose induced insulin glycation. After incubation, the reaction mixture was measured at an excitation wavelength of 320 nm and emission wavelength of 410 nm using a fluorescence microplate reader (Gemini XPS).

bovine insulin [2] = target: T1, bovine insulin; assay: D-glucose-induced non-enzymatic insulin glycation assay; assay type: biochemical
Method: as §1, §2

Aβ25-35 = target: T2, Aβ25-35 (Homo sapiens, UniProt P05067); assay: Aβ25-35 self-aggregation assay (thioflavin-T fluorescence); assay type: biochemical; conditions: for inhibition at 10 µM: read-out: inhibition of Aβ25-35 self-aggregation
T2 construct: Gly1 and Phe1 for insulin) and C-terminals (Met35 for Aβ25-35; purchased Sigma-Aldrich
Method: A monomeric Aβ25-35 solution was prepared using the method of Naldi and coworkers. A 2.5 μL aliquot of various concentrations of the tested phlorotannins in 50 mM phosphate buffer (pH 7.4) with 100 mM NaCl was added to 72.5 μL of Aβ25-35 sample (100 μM), and the mixture was incubated at 4 °C for 1 day. After incubation, 25 μM thioflavin T in 50 mM glycine-NaOH buffer (pH 8.5) was added to the reaction mixture. Fluorescence emission intensity was monitored at 490 nm (λexc = 446 nm) using a fluorescence microplate reader (Gemini XPS, Molecular Devices, Sunnyvale, CA, USA).

[3] = tested on: lipid peroxidation in rat brain homogenates; assay: Lipid peroxidation (TBARS) assay in whole rat brain homogenates; assay type: biochemical; conditions: Fe2+-treated rat brain homogenates, MDA level, mean ± SD, n = 3
Method: Whole rat brain homogenates were prepared from freshly killed Sprague Dawley rats (male, 6-months old) and provided by the Aging Tissue Bank of Pusan National University. One g of whole rat brain was homogenized in 10 mL of cold 20 mM sodium phosphate buffer containing 140 mM KCl (pH 7.4) and centrifuged at 1300× g for 15 min.
A TBA reactive species (TBARS) assay was used to evaluate the antioxidant activity of the phlorotannins in the rat brain homogenates. An aliquot of the supernatant fraction of the homogenates was mixed with phlorotannins dissolved in 10% DMSO, freshly prepared ferric sulfate (250 μM), and distilled water in a 10:5:3:12 ratio, and then the reaction mixture was incubated at 37 °C for 1 h. The reaction was completed by adding a color reagent containing 0.8% TBA, 8.1% SDS, and a 7.5% (final concentration) acetic acid-NaOH solution (pH 3.4) in a 2:1:2 ratios. The mixture was boiled in a water bath for 1 h. After cooling, the reaction mixture was mixed with an equal volume of n-butanol and centrifuged at 1300× g for 10 min. The absorbance of the upper layer was measured at 532 nm using a spectrophotometer (Molecular Devices). The formation of TBARS was expressed as MDA nmol/mg protein using 1,1,3,3-tetramethoxypropane as a standard. Trolox was used as a positive control.

[4] = rats, intravenous injection; cited from earlier work
[5] = design: method as in PMID 30744179; conditions: pharmacokinetic parameter prediction study; cited from earlier work
[6] = bovine insulin, D-ribose, mean ± SD, n = 3, read-out: IC50 D-Ribose-Induced Insulin Glycation
[7] = bovine insulin, D-glucose, 2 weeks incubation, mean ± SD, n = 3, read-out: IC50 D-Glucose-Induced Insulin Glycation
[8] = at 10 μM, thioflavin-T fluorescence
[9] = thioflavin-T fluorescence, Aβ25-35 100 μM, mean ± SD, n = 3, read-out: IC50 Aβ25-35 Aggregation

T1 sequence (P01317 25-54 limits assumed): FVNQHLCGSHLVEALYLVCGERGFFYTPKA
T1 sequence (P01317 85-105 limits assumed): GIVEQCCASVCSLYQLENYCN

SMILES: Oc1cc(O)cc(Oc2c(O)cc(O)c3c2Oc2c(O)cc(Oc4c(O)cc(Oc5c(O)cc(O)c6c5Oc5c(O)cc(O)cc5O6)cc4O)cc2O3)c1 [Dieckol, dieckol]
- IC50 (bovine insulin [1]; [6]): 63.7 ± 3.83 µM
- IC50 (bovine insulin [2]; [7]): > 100 µM
- inhibition at 10 µM (Aβ25-35; [8]): 67%
- IC50 (Aβ25-35; [9]): 7.93 ± 0.16 µM
- EC50 [3]: 13.5 ± 0.38 µM
- BBB passage [4]: effectively passed the BBB

SMILES: Oc1cc(O)c2oc3cc(O)c4oc5cc(O)cc(O)c5oc4c3oc2c1 [Dioxinodehydroeckol, dioxinodehydroeckol]
- IC50 (bovine insulin [1]): > 100 µM
- inhibitory activity on D-ribose-induced insulin glycation (bovine insulin [1]): weak or no inhibitory activity
- IC50 (bovine insulin [2]): > 100 µM
- IC50 (Aβ25-35): 8.31 ± 0.23 µM
- inhibition at 10 µM (Aβ25-35): 66.1%
- EC50 [3]: 12.4 ± 1.5 µM

SMILES: C[C@@H]1O[C@@H](OC[C@H]2O[C@@H](Oc3c(-c4ccc(O)c(O)c4)oc4cc(O)cc(O)c4c3=O)[C@H](O)[C@@H](O)[C@@H]2O)[C@H](O)[C@H](O)[C@H]1O [Rutin, rutin, reference compound]
- IC50 (bovine insulin [2]; [7]): 5.19 ± 1.35 µM

SMILES: COc1cc(C=O)ccc1O [Vanillin, vanillin, reference compound]
- activity on D-ribose-induced insulin glycation (bovine insulin [1]; at 500 µM, negative control): no activity
- IC50 (bovine insulin [1]; [6]): > 500 µM

Now from value to molecule, other results behind:

- IC50 (bovine insulin [1]; [6]): 259 ± 10.8 µM
- IC50 (bovine insulin [2]; [7]): > 100 µM
- inhibition at 10 µM (Aβ25-35; [8]): 34.5%
- IC50 (Aβ25-35; [9]): 34.4 ± 1.11 µM
- EC50 [3]: 38.6 ± 1.16 µM
SMILES: Oc1cc(O)cc(Oc2c(O)cc(O)c3c2Oc2c(O)cc(O)cc2O3)c1 [Eckol, eckol]
- CNS penetration [5]: penetrates the CNS moderately

- IC50 (bovine insulin [1]; [6]): 29.5 ± 0.53 µM
- IC50 (bovine insulin [2]; [7]): 43.5 ± 2.38 µM
- inhibition at 10 µM (Aβ25-35; [8]): 80%
- IC50 (Aβ25-35; [9]): 6.18 ± 0.18 µM
- EC50 [3]: 11 ± 0.16 µM
SMILES: Oc1cc(O)cc(Oc2c(O)cc(O)c3c2Oc2c(O)cc4oc5c(Oc6cc(O)cc(O)c6)c(O)cc(O)c5c4c2O3)c1 [Phlorofucofuroeckol-A, phlorofucofuroeckol-A]

- inhibitory activity on D-ribose-induced insulin glycation (bovine insulin [1]): weak or no inhibitory activity
- IC50 (bovine insulin [1]; [6]): > 100 µM
- inhibition at 100 µM (bovine insulin [2]; at 100 µM): 40%
- IC50 (bovine insulin [2]; [7]): > 100 µM
- inhibitory effect on Aβ25-35 self-aggregation (Aβ25-35; at 50 μM): no inhibitory effect
- IC50 (Aβ25-35; [9]): > 100 µM
- EC50 [3]: > 75 µM
SMILES: Oc1cc(O)cc(O)c1 [Phloroglucinol, phloroglucinol]

- EC50 [3]: 49 ± 3.5 µM
SMILES: Cc1c(C)c2c(c(C)c1O)CCC(C)(C(=O)O)O2 (stereo not shown) [Trolox, reference compound]

Reference: PMC6891666, “Identifying Phlorofucofuroeckol-A as a Dual Inhibitor of Amyloid-β25-35 Self-Aggregation and Insulin Glycation: Elucidation of the Molecular Mechanism of Action” (Marine Drugs, 2019)
